Data from article PMC10022191, “Safety, tolerability, pharmacokinetics, and antiviral activity of the novel core protein allosteric modulator ZM-H1505R (Canocapavir) in chronic hepatitis B patients: a randomized multiple-dose escalation trial” (BMC Medicine, 2023).

Target: genotype D HBV
Assay: primary human hepatocyte (PHH) assay, extracellular HBV DNA by qPCR
Procedure: To determine the anti-HBV activity of ZM-H1505R, the primary human hepatocyte (PHH) assay was performed in vitro. One day after infection with genotype D HBV, ZM-H1505R was added to the culture medium of PHH. The culture medium supplemented with ZM-H1505R was changed every two days. The culture supernatants were collected, of which the extracellular HBV DNA content was measured by qPCR.

For O=C1CO[C@H](c2cn(-c3ccc(Br)cc3)nc2-c2ccc(F)cc2)N1CCc1ccc2[nH]c(=O)[nH]c2c1 [Canocapavir], the “protein binding-adjusted HBV DNA EC50” value (protein-binding adjusted) was 0.135 µg/mL, the “protein binding-adjusted HBV DNA EC90” value (protein-binding adjusted) was 0.937 µg/mL and the EC50 (read-out: EC50, inhibition of extracellular HBV DNA generation, PHH infected with genotype D HBV) was 12.3 nM. It also gave an EC90 (read-out: EC90, inhibition of extracellular HBV DNA generation, PHH infected with genotype D HBV) of 83.3 nM.
